# Laboratory results: patent US20080227813A1, “Pharmaceutical compositions and methods for treating diseases associated with neurodegeneration” (priority 2006, published 2008)
# Where two headings read alike, the source gives them in different places.
# Tests used:
# Beagle dogs [1] = experiment: 14-day repeated dose oral toxicity study in Beagle dogs; type: in vivo; settings: dog, 210 mg/kg/day oral, 14 days
# Method: The control animals were treated in the same way with placebo gelatin capsules.
# The checks of mortality were done twice daily. The clinical observations were performed at least twice daily and the weighing of non-consumed food was done daily. The body weights of the animals were measured once a week. The hematological, clinical chemical and ECG investigations, urinalysis and the opthalmological examinations were performed prior to the treatment and at the end of the treatment period. Terminally gross necropsy and histopathological examinations were performed according to the study plan.
# [2] = rat, in vivo
# Method: The pharmacokinetic properties of total radioactivity were studied in male and female Wistar rats at the dose of 25.8 mg/kg ^14C labeled Compound I (equal to 16 mg/kg free base) administered intravenously and orally (Study B: Compound I/PRE SK-007). The concentrations of total radioactivity were monitored by liquid scintillation counting and whole-body autoradiographic methods in serum, organs, tissues, and excreta. All parts of the study were performed in both sexes (n=5 in both sexes).
# [3] = dog, in vivo, po
# Method: Four animals of both sexes/groups were used, except the control and high dose group where the groups were completed with 2 recovery animals in both sexes.
# The check of mortality and the clinical observations were performed twice daily, the weighing of non-consumed food was done daily. The body weight of the animals was measured once a week. The urine, hematological, clinical chemical and ECG investigations were performed before the first treatment day and at termination of the treatment and at the end of the recovery period. The blood samples for kinetic analysis were taken in the 2nd and in the 104th, 110th and 111th treatment days. The opthalmoscopic examinations were performed prior to the treatment, at termination of the treatment and at the end of the recovery period. Terminally gross necropsy and histopathological examinations were performed in all animals.
# CRL: NMRI BR mice = settings: mouse, 5000 mg/kg
# Method: On the basis of acute oral toxicity of test item Compound I in CRL: NMRI BR mice the dose level 5000 mg/kg (equal to 3101 mg/kg free base) was examined in the micronucleus test.
# CRL:(WI)BR rats [4] = experiment: Acute oral toxicity in rats; type: in vivo; settings: rat
# Method: All animal toxicology studies were performed at Toxicological Research Centre (Veszprém, Hungary) using protocols compliant with OECD guidelines and Principles of Good Laboratory Practice. Following is a summary of the studies conducted.
# Acute oral toxicity studies were performed in rats (CRL(WI:)BR) and in mice (CRL: NMRI BR). A control and five dose groups were involved in the rat study at dose levels of 2000 mg/kg, 2600 mg/kg, 3400 mg/kg, 4400 mg/kg and 5700 mg/kg (equal to 1241 mg/kg, 1613 mg/kg, […], 2729 mg/kg and 3535 mg/kg free base, n=5 animals/sex/group).
# CRL:NMRI BR mice = experiment: Acute intraperitoneal toxicity in mice; type: in vivo; settings: mouse
# Method: (§1) Acute intraperitoneal toxicity studies were performed in rats (CRL(WI:)BR) and in mice (CRL: NMRI BR).
# In the case of the mouse study a control and five dose groups were involved at dose levels of 850 mg/kg, 1100 mg/kg, 1500 mg/kg, 1900 mg/kg and 2600 mg/kg (equal to 527 mg/kg, 682 mg/kg, 930 mg/kg, 1178 mg/kg and 1613 mg/kg free base, n=5 animals/sex/group).
# CRL:(WI)BR rats [5] = experiment: Acute intraperitoneal toxicity in rats; type: in vivo; settings: rat
# Method: as §1
# A control and five dose groups were involved in the rat study at dose levels of 500 mg/kg, 650 mg/kg, 800 mg/kg, 950 mg/kg and 1200 mg/kg (equal to 310 mg/kg, 403 mg/kg, 496 mg/kg, 589 mg/kg and 744 mg/kg free base, n=5 animals/sex/group).
# Beagle dogs [6] = experiment: 28-day repeated dose oral toxicity study in dogs; type: in vivo, dog; settings: for No observed adverse effect level (NOAEL): Beagle dogs male and female, 28-day oral
# Method: The control animals were treated in the same manner with placebo gelatin capsules.
# Pre-treatment: hematological, clinical chemistry and ECG investigations and opthalmoscopic examinations were performed.
# During the treatment period: check of mortality and clinical observation were performed at least twice daily and weighing the non-consumed food was performed daily. The body weights of animals were measured once a week. At the end of the treatment, hematological laboratory and ECG investigations, opthalmoscopic examinations, gross necropsy, histopathological and histometrical examinations were performed.
# [7] = 69 assigned to treatment, 100 mg tid, 6 months
# [8] = number of patients, open-label 100 mg tid
# [9] = vs placebo cohort of the Celebrex® study (historical control)
# [10] = dog, 70-210 mg/kg/day oral, 28 days
# Method for patients with ALS: An open label extension study was conducted in patients from Example 23 who completed 12 weeks of treatment and a Week 16 Follow-up Visit. Subjects received 100 mg tid Compound I daily for approximately six months. Visits occurred at Screening, Baseline, and once a month for six months (total of 8 visits). A telephone call at Month 7 ended subject participation in the study.
# Disease Progression: There are four main indicators of disease progression that can be measured accurately in these time frames; ALSFRS-R, % VC, weight, and body mass index. The analysis assumed that any subject who dropped out (or died) had the worst possible outcome, based on an analysis by Finkelstein and Schoenfeld (Stat. Med. 1999 18:1341-54). This non-parametric analysis orders outcomes so that subjects who dropped out (or died) were considered to have a worse outcome than subjects who lived. For comparison these characteristics for the placebo group in the Celebrex® trial are included.
compound,measurement,setting,value
"[O-][n+]1cccc(/C(Cl)=N/OC[C@H](O)CN2CCCCC2)c1 [Compound I, N-[2-hydroxy-3-(1-piperidinyl)-propoxy]-pyridine-1-oxide-3-carboximidoyl chloride]",ECG or ophthalmological alterations,Beagle dogs [1],no direct treatment related ECG or opthalmological alterations
same,clinical signs,Beagle dogs [1],"decreased activity, tremor, ptosis, salivation, increased muscle tone, vomiting and thin feces"
same,liver histopathology,Beagle dogs [1],moderate degree proliferation of cells belonging to the mononuclear phagocyte system (MPS) of the liver
same,mortality,Beagle dogs [1],no death occurred
same,dose eliminated with bile,[2],20-30 % of dose
same,dose remaining in the rats,[2],~20%
same,"radioactivity by 3rd post-treatment hour, share of first measured concentration","[2]; iv, 25.8 mg/kg",20%
same,"organ radioactivity at 4th hour, share of 45 min values",[2]; po,20-60%
same,penetration through the blood-brain barrier,[2]; po,weak penetration through the blood-brain barrier
same,increase of radioactivity in organs and tissues,"[2]; po, 25.8 mg/kg",4-12 fold
same,time of first maximal serum concentration of radioactivity,"[2]; po, 25.8 mg/kg",≤ 1 h
same,total exposure of last day (0-24 h AUD) vs first day,"[2]; po, 25.8 mg/kg",more than two times higher
same,AUCtot,[3]; 50 mg/kg/day,40220 ng·h/mL
same,Cmax,[3]; 50 mg/kg/day,10840 ng/mL
same,MRT,[3]; 50 mg/kg/day,3.78 h
same,Tmax,[3]; 50 mg/kg/day,1.78 h
same,clearance,[3]; 50 mg/kg/day,13 mL/min/kg
same,t½,[3]; 50 mg/kg/day,1.89 h
same,AUCtot,[3]; 80 mg/kg/day,87010 ng·h/mL
same,Cmax,[3]; 80 mg/kg/day,22000 ng/mL
same,MRT,[3]; 80 mg/kg/day,4.04 h
same,Tmax,[3]; 80 mg/kg/day,1.88 h
same,clearance,[3]; 80 mg/kg/day,9.5 mL/min/kg
same,t½,[3]; 80 mg/kg/day,2.10 h
same,AUCtot,[3]; 160 mg/kg/day,166390 ng·h/mL
same,Cmax,[3]; 160 mg/kg/day,37950 ng/mL
same,MRT,[3]; 160 mg/kg/day,4.57 h
same,Tmax,[3]; 160 mg/kg/day,1.94 h
same,clearance,[3]; 160 mg/kg/day,10.3 mL/min/kg
same,t½,[3]; 160 mg/kg/day,2.44 h
same,mutagenicity in vivo,CRL: NMRI BR mice,non-mutagenic
same,number of micronucleated polychromatic erythrocytes (MPCEs),CRL: NMRI BR mice; in vivo,did not induce a significant increase
same,Oral LD50 value,"CRL:(WI)BR rats [4]; female, by base",1977 - by base mg/kg
same,Oral LD50 value,"CRL:(WI)BR rats [4]; female, by citrate",3188 - by citrate mg/kg
same,Oral LD50 value,"CRL:(WI)BR rats [4]; male, by base",1754 (1425-2146) - by base mg/kg
same,Oral LD50 value,"CRL:(WI)BR rats [4]; male, by citrate",2828 (2297-3460) - by citrate mg/kg
same,safety and tolerability,patients with ALS; 6 month dosing,safe and well tolerated
same,% Early Study Medication Discontinuation,patients with ALS; [7],11.6%
same,Completed Trial on Treatment,patients with ALS; [7],61
same,Early Study Medication Discontinuation,patients with ALS; [7],8
same,treatment discontinuation: Adverse Event,patients with ALS; [8],1
same,treatment discontinuation: Death,patients with ALS; [8],1
same,treatment discontinuation: Other Reasons,patients with ALS; [8],0
same,treatment discontinuation: Reason not listed,patients with ALS; [8],0
same,treatment discontinuation: Withdrew Consent,patients with ALS; [8],6
same,# Early Study Medication Discontinuations per Month,patients with ALS; over 6-months,1.33
same,rate of ALSFRS-R decline,patients with ALS; patients co-administered with riluzole vs without,no apparent difference
same,progression of Vital Capacity (VC),patients with ALS; patients treated with riluzole in addition to Compound I vs those not treated with riluzole,appeared to progress more slowly
same,change in serum creatinine levels,patients with ALS; screening vs 6-month,no significant change
same,slower decline by % VC,patients with ALS; [9],7.6%
same,slower decline by ALSFRS-R,patients with ALS; [9],21.4%
same,slower decline by BMI,patients with ALS; [9],20.4%
same,slower decline by weight,patients with ALS; [9],22.8%
same,Intraperitoneal LD50 value,"CRL:NMRI BR mice; female, by base",738 - by base mg/kg
same,Intraperitoneal LD50 value,"CRL:NMRI BR mice; female, by citrate",1189 - by citrate mg/kg
same,Intraperitoneal LD50 value,"CRL:NMRI BR mice; male, by base",839 (674-1023) by base mg/kg
same,Intraperitoneal LD50 value,"CRL:(WI)BR rats [5]; female, by base",770 - by base mg/kg
same,Intraperitoneal LD50 value,"CRL:(WI)BR rats [5]; female, by citrate",1241 - by citrate mg/kg
same,Intraperitoneal LD50 value,"CRL:(WI)BR rats [5]; male, by base",698 (577-3871) by base mg/kg
same,Intraperitoneal LD50 value,"CRL:(WI)BR rats [5]; male, by citrate",1125 (931-6241) by citrate mg/kg
same,No observed adverse effect level (NOAEL),Beagle dogs [6]; by base,43.4 mg/kg/day
same,No observed adverse effect level (NOAEL),Beagle dogs [6]; by citrate,70 mg/kg/day
same,ECG and ophthalmologic alterations,Beagle dogs [6]; [10],did not cause ECG and opthalmologic alterations
same,mortality,Beagle dogs [6]; [10],No deaths occurred
